From ChEMBL document CHEMBL5608170, “An insight into sustainable and green chemistry approaches for the synthesis of quinoline derivatives as anticancer agents” (Eur J Med Chem, 2024)
Values after ≈ are worked out from the molar mass of the structure shown. Each block holds one compound with its values, some of them ahead of it.

What was measured:
[1] = test system: MCF7; assay: Cytotoxicity against human MCF7 cells assessed as reduction in cell viability incubated for 24 hrs by MTT assay; format: functional, cell-based; conditions: MCF7, 24 h
[2] = test system: A549; assay: Cytotoxicity against human A549 cells assessed as reduction in cell viability incubated for 24 hrs by MTT assay; format: functional, cell-based; conditions: A549, 24 h
[3] = test system: HepG2; assay: Cytotoxicity against human HepG2 cells assessed as reduction in cell viability incubated for 24 hrs by MTT assay; format: functional, cell-based; conditions: HepG2, 24 h
[4] = test system: HCT-116; assay: Cytotoxicity against human HCT-116 cells assessed as reduction in cell viability incubated for 24 hrs by MTT assay; format: functional, cell-based; conditions: HCT-116, 24 h
[5] = test system: HeLa; assay: Growth inhibition of human HeLa cells by SRB assay; format: functional
[6] = test system: HCT 116 TP53(-/-); assay: Antiproliferative activity against human HCT116-p53-null cells assessed as reduction in cell viability by MTT assay; format: functional, cell-based
[7] = test system: MDA-MB-231; assay: Cytotoxicity against human MDA-MB-231 cells assessed as reduction in cell growth measured for 48 hrs by MTT assay; format: functional, cell-based; conditions: MDA-MB-231, 48 h
[8] = test system: MDA-MB-231; assay: Cytotoxicity against human MDA-MB-231 cells assessed as reduction in cell viability incubated for 48 hrs by MTT assay; format: functional, cell-based; conditions: MDA-MB-231, 48 h
[9] = test system: HOP-62; assay: Growth inhibition of human HOP-62 cells at 10 uM by SRB assay relative to control; format: functional; conditions: read-out: GI
[10] = test system: CCRF-CEM; assay: Growth inhibition of human CCRF-CEM cells at 10 uM by SRB assay relative to control; format: functional; conditions: read-out: GI
[11] = test system: HOP-92; assay: Growth inhibition of human HOP-92 cells at 10 uM by SRB assay relative to control; format: functional; conditions: read-out: GI
[12] = test system: A498; assay: Growth inhibition of human A498 cells at 10 uM by SRB assay relative to control; format: functional; conditions: read-out: GI
[13] = test system: UO-31; assay: Growth inhibition of human UO-31 cells at 10 uM by SRB assay relative to control; format: functional; conditions: read-out: GI
[14] = test system: MCF7; assay: Cytotoxicity against human MCF7 cells assessed as reduction in cell growth by MTT assay; format: functional, cell-based
[15] = test system: HepG2; assay: Cytotoxicity against human HepG2 cells assessed as reduction in cell growth by MTT assay; format: functional, cell-based
[16] = test system: A549; assay: Cytotoxicity against human A549 cells assessed as reduction in cell growth by MTT assay; format: functional, cell-based
[17] = test system: PC-3; assay: Cytotoxicity against human PC-3 cells assessed as reduction in cell growth measured for 48 hrs by MTT assay; format: functional, cell-based; conditions: PC-3, 48 h
[18] = test system: DU-145; assay: Cytotoxicity against human DU-145 cells assessed as reduction in cell growth measured for 48 hrs by MTT assay; format: functional, cell-based; conditions: DU-145, 48 h
[19] = Cytotoxicity against human HEp-2C cells assessed as reduction in cell viability incubated for 72 hrs by MTT assay; format: functional, cell-based; conditions: Hep2C
[20] = test system: MCF7; assay: Anticancer activity against human MCF7 cells assessed as reduction in cell growth incubated for 48 hrs by MTT assay; format: functional, cell-based; conditions: MCF7, 48 h
[21] = test system: HeLa; assay: Anticancer activity against human HeLa cells assessed as reduction in cell growth incubated for 48 hrs by MTT assay; format: functional, cell-based
[22] = test system: CAKI-1; assay: Growth inhibition of human CAKI-1 cells at 10 uM by SRB assay relative to control; format: functional; conditions: read-out: GI
[23] = test system: TK-10; assay: Growth inhibition of human TK-10 cells at 10 uM by SRB assay relative to control; format: functional; conditions: read-out: GI
[24] = test system: Hs-578T; assay: Growth inhibition of human Hs-578T cells at 10 uM by SRB assay relative to control; format: functional; conditions: read-out: GI
[25] = test system: A549; assay: Antiproliferative activity against human A549 cells assessed as reduction in cell viability by MTT assay; format: functional, cell-based
[26] = test system: NCI-H460; assay: Antiproliferative activity against human NCI-H460 cells assessed as reduction in cell viability by MTT assay; format: functional, cell-based
[27] = test system: A549; assay: Anticancer activity against human A549 cells assessed as reduction in cell growth incubated for 48 hrs by MTT assay; format: functional, cell-based; conditions: A549, 48 h

Structure (SMILES): N#CC1=C(N)Oc2c(ccc3cccnc23)C1c1ccc(Br)cc1 (configuration not stated)
IC50 [1]: 1.17 µg/mL (≈ 3.09 µM)
IC50 [2]: 38 µg/mL (≈ 100 µM)
IC50 [3]: 1.41 µg/mL (≈ 3.73 µM)
IC50 [4]: 1.3 µg/mL (≈ 3.44 µM)

GI50 [5]: < 0.1 µM
Structure (SMILES): CC(=O)NC1=NN(C(C)=O)C(c2cc3cc(Br)ccc3n3nnnc23)S1 (configuration not stated)

GI50 [5]: < 0.1 µM
Structure (SMILES): CC(=O)NC1=NN(C(C)=O)C(c2cc3cc(Cl)ccc3n3nnnc23)S1 (configuration not stated)

Structure (SMILES): N#CC1=C(N)Oc2c(cc(Cl)c3cccnc23)C1c1ccc(Br)cc1 (configuration not stated)
IC50 [1]: 0.99 µg/mL (≈ 2.4 µM)
IC50 [2]: 3.1 µg/mL (≈ 7.51 µM)
IC50 [3]: 1.23 µg/mL (≈ 2.98 µM)
IC50 [4]: 5.81 µg/mL (≈ 14.1 µM)

Structure (SMILES): Cc1ccc2ccc3c(c2n1)OC(N)=C(C#N)C3c1cccc(Cl)c1Cl (configuration not stated)
IC50 [1]: 1.24 µg/mL (≈ 3.24 µM)
IC50 [3]: 1.83 µg/mL (≈ 4.79 µM)

IC50 [6]: 5.1 µM
Structure (SMILES): O=[N+]([O-])c1c(Nc2ccc(F)c(Cl)c2)nc2ccccc2c1Nc1ccc(F)c(Cl)c1

Structure (SMILES): O=C1N(c2ccc([N+](=O)[O-])cc2[N+](=O)[O-])c2[nH]c(=O)[nH]c(=O)c2C12c1ccccc1Nc1c2[nH]c(=O)[nH]c1=O (configuration not stated)
IC50 [7]: 10.6 µM

Structure (SMILES): COc1ncc(-c2cc(-c3cn(Cc4ccccc4F)nn3)cc3ccc(C)nc23)cc1F
IC50 [8]: 20.6 µM

Structure (SMILES): Cc1cc(=O)n(C(=O)Nc2ccc(F)c(Cl)c2)c2cc(O)ccc12
inhibition of growth at 10 µM [9]: 17.6%
inhibition of growth at 10 µM [10]: 58.6%
inhibition of growth at 10 µM [11]: 27.4%
inhibition of growth at 10 µM [12]: 20.5%
inhibition of growth at 10 µM [13]: 30%

IC50 [6]: 4.8 µM
Structure (SMILES): COc1ccc(Nc2nc3ccccc3c(NCc3ccccc3Cl)c2[N+](=O)[O-])cc1

Structure (SMILES): N#CC1C(=S)N=C2C(=C1c1ccc(F)cc1)CCC/C2=C\c1ccc(F)cc1 (configuration not stated)
IC50 [14]: 13.1 µg/mL (≈ 33.7 µM)
IC50 [15]: 11.2 µg/mL (≈ 28.8 µM)
IC50 [16]: 28.4 µg/mL (≈ 72.9 µM)

Structure (SMILES): O=C1N(c2ccc(Cl)cc2)c2[nH]c(=O)[nH]c(=O)c2C12c1ccccc1Nc1c2[nH]c(=O)[nH]c1=O (configuration not stated)
IC50 [17]: 19.9 µM
IC50 [18]: 16.5 µM

Structure (SMILES): Clc1cccc(NCN2CCCc3ccccc32)c1
IC50 [19]: 11.9 µM

IC50 [20]: 31.4 µM
IC50 [21]: 15.7 µM
Structure (SMILES): COc1cccc(-n2nnc3c2-c2ccc4cccnc4c2OC3)c1

Structure (SMILES): Cc1cc(=O)n(C(=O)Nc2ccccc2)c2cc(O)ccc12
inhibition of growth at 10 µM [22]: 12.4%
inhibition of growth at 10 µM [23]: 82.9%
inhibition of growth at 10 µM [11]: 16%
inhibition of growth at 10 µM [24]: 11.5%
inhibition of growth at 10 µM [13]: 23.1%

IC50 [25]: 6.5 µM
IC50 [26]: 5.4 µM
Structure (SMILES): COc1ccccc1Nc1nc2ccccc2c(Nc2ccccc2OC)c1[N+](=O)[O-]

IC50 [20]: 16.9 µM
IC50 [27]: 32.5 µM
IC50 [21]: 11.4 µM
Structure (SMILES): Cc1cc(C)cc(-n2nnc3c2-c2ccc4cccnc4c2OC3)c1

Structure (SMILES): O=C1N(c2cccnc2)c2[nH]c(=O)[nH]c(=O)c2C12c1ccccc1Nc1c2[nH]c(=O)[nH]c1=O (configuration not stated)
IC50 [17]: 15.4 µM
IC50 [7]: 7.97 µM
IC50 [18]: 15 µM

Structure (SMILES): Cc1ccc2ccc3c(c2n1)OC(N)=C(C#N)C3c1cccc(Cl)c1 (configuration not stated)
IC50 [1]: 5.79 µg/mL (≈ 16.6 µM)
IC50 [3]: 3.01 µg/mL (≈ 8.65 µM)

Structure (SMILES): N#CC1C(=S)N=C2C(=C1c1ccc(Cl)cc1)CCC/C2=C\c1ccc(Cl)cc1 (configuration not stated)
IC50 [14]: 3.17 µg/mL (≈ 7.49 µM)
IC50 [15]: 2.86 µg/mL (≈ 6.76 µM)
IC50 [16]: 25.5 µg/mL (≈ 60.3 µM)
